Measurements reported in publication PMC9747611 (Hypertension Research, 2022).
“Also recorded” adds a separate entry of the source. Read-outs that look alike come from different tables or passages of the source.

Tests used:
Type in all cases: in vivo, human
[1] = Plasma electrolytes and renal function (pharmacodynamics)
Procedure: Plasma PD measures included concentrations of aldosterone, 18-hydroxycorticosterone, corticosterone, 11-deoxycorticosterone, cortisol (free and total), 11-deoxycortisol, ACTH, sodium, chloride, and potassium. AUCs were calculated using a noncompartmental analysis and the linear trapezoidal/linear interpolation method. Urine PD measures included concentrations of aldosterone, cortisol (free and total), tetrahydroaldosterone, sodium, chloride, potassium, creatinine, and phosphorus. Other PD measures were seated, orthostatic, and positional changes in vital signs, as well as changes in body weight and BMI. Safety assessments involved adverse events, physical examinations, ECGs, orthostatic vital signs, and clinical laboratory evaluations.

[2] = tested on: plasma cortisol; experiment: Plasma and urine cortisol and 11-deoxycortisol (pharmacodynamics, with ACTH challenge in low-salt cohorts)
Procedure: Cohorts 1 and 2 also underwent an ACTH (Cortrosyn^TM) challenge at baseline (day −1), 1 h after the first dose of study drug on day 1, and 1 h after the final dose of study drug on day 10. This was done to increase aldosterone and cortisol levels to more thoroughly evaluate the specificity of baxdrostat for targeting aldosterone synthase. The ACTH challenge consisted of an intravenous injection of 0.25 mg Cortrosyn^TM administered over 2 min after an overnight fast.
Plasma and urine samples were analyzed to measure concentrations of baxdrostat and its primary metabolite (CIN-107-M), aldosterone and its precursors, cortisol and its precursor, and ACTH using a validated liquid chromatography tandem mass spectrometry method (LC-MS/MS). The quantifiable ranges for both baxdrostat and its metabolite CIN-107-M in plasma and urine were 0.05 to 50 ng/mL (low range) and 5 to 2500 ng/mL (high range), using baxdrostat-d5 and CIN-107-M-d3, respectively, as the internal standards. Plasma samples were extracted by protein precipitation with methanol, followed by analysis by LC-MS/MS with electrospray ionization in positive mode and multiple reaction monitoring. […]
Plasma PD measures included concentrations of aldosterone, 18-hydroxycorticosterone, corticosterone, 11-deoxycorticosterone, cortisol (free and total), 11-deoxycortisol, ACTH, sodium, chloride, and potassium. AUCs were calculated using a noncompartmental analysis and the linear trapezoidal/linear interpolation method. […]
Subjects who received placebo were pooled into 2 treatment groups: placebo with low-salt diet and placebo with normal-salt diet. Descriptive statistics were calculated for PK, PD, and safety measures. […] The results of the exploratory dose proportionality power model were assessed using the Smith criteria (0.9031, 1.0969) and the less stringent Hummel criteria (0.6990, 1.3010).

[3] = Plasma pharmacokinetics of baxdrostat and CIN-107-M, multiple ascending dose phase 1 study; details: for RAUC (accumulation ratio based on AUC) / RCmax (accumulation ratio based on Cmax): day 10 vs day 1, mean ± SD; for Cmax / Tmax / Vd/F / half-life: human, plasma, po; for Vd/F: read-out: Vss/F
Procedure: Subjects were randomized in a 3:1 ratio to baxdrostat or placebo once daily for 10 days as follows: • Cohort 1: 2.5 mg baxdrostat or matching placebo on a low-salt diet, 9 subjects receiving baxdrostat and 3 subjects receiving placebo • Cohort 2: 5.0 mg baxdrostat or matching placebo on a low-salt diet, 9 subjects receiving baxdrostat and 3 subjects receiving placebo • Cohort 3: 1.5 mg baxdrostat or matching placebo on a normal-salt diet, 9 subjects receiving baxdrostat and 3 subjects receiving placebo • Cohort 4: 2.5 mg baxdrostat or matching placebo on a normal-salt diet, 6 subjects receiving baxdrostat and 2 subjects receiving placebo • Cohort 5: 0.5 mg baxdrostat or matching placebo on a normal-salt diet, 9 subjects receiving baxdrostat and 3 subjects receiving placebo.
The study drug was a 2 mg/mL baxdrostat oral solution and matching oral placebo solution. Subjects received a single dose of oral solution of baxdrostat or placebo on the mornings of days 1 through 10 at 8:00 a.m. (± 2 h). On days 1 and 10, the dose was given following an overnight fast (of at least 8 h), and subjects remained fasted for at least 4 h after dosing on these days. On all other days, subjects fasted for a minimum of 2 h before and 2 h after dosing.
(§1) Plasma and urine samples were analyzed to measure concentrations of baxdrostat and its primary metabolite (CIN-107-M), aldosterone and its precursors, cortisol and its precursor, and ACTH using a validated liquid chromatography tandem mass spectrometry method (LC-MS/MS). The quantifiable ranges for both baxdrostat and its metabolite CIN-107-M in plasma and urine were 0.05 to 50 ng/mL (low range) and 5 to 2500 ng/mL (high range), using baxdrostat-d5 and CIN-107-M-d3, respectively, as the internal standards. Plasma samples were extracted by protein precipitation with methanol, followed by analysis by LC-MS/MS with electrospray ionization in positive mode and multiple reaction monitoring. All scheduled study-related laboratory tests were performed by Medpace Reference Laboratories (Cincinnati, OH, USA), Medpace Bioanalytical Laboratories (Cincinnati, OH, USA), Mercy Health—West Hospital Laboratory (Cincinnati, OH, USA), or Laboratory Corporation of America (Dublin, OH, USA).
Blood samples were collected prior to and after dosing on days 1 and 10 for measurement of plasma baxdrostat and CIN-107-M concentrations to characterize single-dose and steady-state PK. Pharmacokinetic parameters were calculated by standard noncompartmental methods using Phoenix WinNonlin™ (Certara, Inc., Princeton, NJ) and verified with SAS (SAS Institute, Inc., Cary, NC) software. […] Steady-state plasma PK parameters consisted of accumulation ratio based on Cmax (RCmax), accumulation ratio based on AUC (RAUC), apparent first-order terminal elimination rate constant (λz), terminal phase elimination half-life (t1/2), apparent plasma clearance (CLss/F), and apparent volume of distribution (Vss/F).

[4] = Urine pharmacokinetics (fraction of dose excreted renally)
Procedure: as §1
The cumulative amount of drug excreted in urine on day 1 (Ae,D1) and day 10 (Ae,D10), fraction of dose excreted renally on day 1 (Fe,D1) and day 10 (Fe,D10), and renal clearance on day 1 (CLR,D1) and day 10 (CLR,D10) composed single-dose urine PK parameters.

[5] = 0.5-5.0 mg once daily for 10 days
[6] = also with ACTH challenge in low-salt diet groups
[7] = 0.5 mg oral once daily, normal-salt diet, day 10, mean ± SD
[8] = 0.5 mg oral once daily, normal-salt diet
[9] = 1.5 mg oral once daily, normal-salt diet, day 10, mean ± SD
[10] = 1.5 mg oral once daily, normal-salt diet
[11] = 2.5 mg oral once daily, low-salt diet, day 10, mean ± SD
[12] = 2.5 mg oral once daily, low-salt diet
[13] = 2.5 mg oral once daily, normal-salt diet, day 10, mean ± SD, n=5
[14] = 2.5 mg oral once daily, normal-salt diet, n=5
[15] = 5.0 mg oral once daily, low-salt diet, day 10, mean ± SD
[16] = 5.0 mg oral once daily, low-salt diet

## CCC(=O)N[C@@H]1CCCc2c(-c3ccc4c(c3)CCC(=O)N4C)cncc21 [baxdrostat]
[1]; [5]
  change in plasma potassium levels: increases
  change in plasma sodium levels: mild dose-dependent decreases
[1]; once daily for 10 days
  reduction in glomerular filtration rate: < 15%
[2]; 24 h urine collections
  effect on urine free cortisol: no meaningful effect
[2]; [6]
  effect on plasma 11-deoxycortisol: no meaningful effect
  effect on plasma cortisol (total or free): no meaningful impact; also recorded: no meaningful effect
[3]; 0.5 mg oral once daily, normal-salt diet, day 1, mean ± SD
  AUC0-24hr: 79.47 ± 17.34 h‧ng/mL
[3]; [7]
  AUC0-tau: 155.19 ± 35.70 h‧ng/mL
  CLss/F: 3.42 ± 1.01 L/h
[3]; [8]
  RAUC (accumulation ratio based on AUC): 1.96 ± 0.27
  RCmax (accumulation ratio based on Cmax): 1.83 ± 0.26
[3]; 1.5 mg oral once daily, normal-salt diet, day 1, mean ± SD
  AUC0-24hr: 205.31 ± 36.74 h‧ng/mL
[3]; [9]
  AUC0-tau: 479.67 ± 138.21 h‧ng/mL
  CLss/F: 3.35 ± 0.92 L/h
[3]; [10]
  RAUC (accumulation ratio based on AUC): 2.31 ± 0.32
  RCmax (accumulation ratio based on Cmax): 2.13 ± 0.24
[3]; 2.5 mg oral once daily, low-salt diet, day 1, mean ± SD
  AUC0-24hr: 365.79 ± 65.51 h‧ng/mL
[3]; [11]
  AUC0-tau: 782.99 ± 143.02 h‧ng/mL
  CLss/F: 3.28 ± 0.53 L/h
[3]; [12]
  RAUC (accumulation ratio based on AUC): 2.15 ± 0.16
  RCmax (accumulation ratio based on Cmax): 1.97 ± 0.30
[3]; 2.5 mg oral once daily, normal-salt diet, day 1, mean ± SD
  AUC0-24hr: 343.98 ± 92.44 h‧ng/mL
[3]; [13]
  AUC0-tau: 676.51 ± 343.78 h‧ng/mL
  CLss/F: 4.32 ± 1.59 L/h
[3]; [14]
  RAUC (accumulation ratio based on AUC): 1.99 ± 0.45
  RCmax (accumulation ratio based on Cmax): 1.71 ± 0.58
[3]; 5.0 mg oral once daily, low-salt diet, day 1, mean ± SD
  AUC0-24hr: 657.85 ± 137.40 h‧ng/mL
[3]; [15]
  AUC0-tau: 1659.41 ± 440.51 h‧ng/mL
  CLss/F: 3.21 ± 0.84 L/h
[3]; [16]
  RAUC (accumulation ratio based on AUC): 2.51 ± 0.26
  RCmax (accumulation ratio based on Cmax): 2.42 ± 0.33
[3]; day 1 (Cmax, AUC0-24 h) and day 10 (Cmax, AUC0-tau, AUC0-t)
  dose proportionality of Cmax and AUC (power model, Hummel criteria): proportional increase
[3]; 0.5 mg, 0.5 mg oral once daily, normal-salt diet, day 1, mean ± SD, n=9, read-out: Cmax,D1
  Cmax: 5.36 ± 1.25 ng/mL
[3]; 0.5 mg, 0.5 mg oral once daily, normal-salt diet, day 1, read-out: Tmax,D1, median (min, max)
  Tmax: 2 h
[3]; 0.5 mg, 0.5 mg oral once daily, normal-salt diet, day 10, mean ± SD, read-out: Cmax,D10
  Cmax: 9.72 ± 2.27 ng/mL
[3]; 0.5 mg, 0.5 mg oral once daily, normal-salt diet, day 10, mean ± SD
  Vd/F: 152 ± 44.5 L
[3]; 0.5 mg, 0.5 mg oral once daily, normal-salt diet, day 10, mean ± SD, read-out: t1/2 (converted)
  half-life: 31.2 ± 5.8 h
[3]; 0.5 mg, 0.5 mg oral once daily, normal-salt diet, day 10, read-out: Tmax,D10, median (min, max)
  Tmax: 2 h
[3]; 1.5 mg, 1.5 mg oral once daily, normal-salt diet, day 1, mean ± SD, n=9, read-out: Cmax,D1
  Cmax: 14 ± 2.24 ng/mL
[3]; 1.5 mg, 1.5 mg oral once daily, normal-salt diet, day 1, read-out: Tmax,D1, median (min, max)
  Tmax: 2.5 h
[3]; 1.5 mg, 1.5 mg oral once daily, normal-salt diet, day 10, mean ± SD, read-out: Cmax,D10
  Cmax: 29.9 ± 6.1 ng/mL
[3]; 1.5 mg, 1.5 mg oral once daily, normal-salt diet, day 10, mean ± SD
  Vd/F: 137 ± 15.8 L
[3]; 1.5 mg, 1.5 mg oral once daily, normal-salt diet, day 10, mean ± SD, read-out: t1/2 (converted)
  half-life: 29.9 ± 7.71 h
[3]; 1.5 mg, 1.5 mg oral once daily, normal-salt diet, day 10, read-out: Tmax,D10, median (min, max)
  Tmax: 2.5 h
[3]; 2.5 mg, 2.5 mg oral once daily, low-salt diet, day 1, mean ± SD, n=9, read-out: Cmax,D1
  Cmax: 28.1 ± 5.9 ng/mL
[3]; 2.5 mg, 2.5 mg oral once daily, low-salt diet, day 1, read-out: Tmax,D1, median (min, max)
  Tmax: 3 h
[3]; 2.5 mg, 2.5 mg oral once daily, low-salt diet, day 10, mean ± SD, read-out: Cmax,D10
  Cmax: 54 ± 7.56 ng/mL
[3]; 2.5 mg, 2.5 mg oral once daily, low-salt diet, day 10, mean ± SD
  Vd/F: 135 ± 36.7 L
[3]; 2.5 mg, 2.5 mg oral once daily, low-salt diet, day 10, mean ± SD, read-out: t1/2 (converted)
  half-life: 28.4 ± 4.75 h
[3]; 2.5 mg, 2.5 mg oral once daily, low-salt diet, day 10, read-out: Tmax,D10, median (min, max)
  Tmax: 2 h
[3]; 2.5 mg, 2.5 mg oral once daily, normal-salt diet, day 1, mean ± SD, n=6, read-out: Cmax,D1
  Cmax: 26.2 ± 4.76 ng/mL
[3]; 2.5 mg, 2.5 mg oral once daily, normal-salt diet, day 1, read-out: Tmax,D1, median (min, max)
  Tmax: 3 h
[3]; 2.5 mg, 2.5 mg oral once daily, normal-salt diet, day 10, mean ± SD, n=5, read-out: Cmax,D10
  Cmax: 43.9 ± 18.7 ng/mL
[3]; 2.5 mg, 2.5 mg oral once daily, normal-salt diet, day 10, mean ± SD, n=5
  Vd/F: 150 ± 42.4 L
[3]; 2.5 mg, 2.5 mg oral once daily, normal-salt diet, day 10, mean ± SD, n=5, read-out: t1/2 (converted)
  half-life: 25.6 ± 5.95 h
[3]; 2.5 mg, 2.5 mg oral once daily, normal-salt diet, day 10, n=5, read-out: Tmax,D10, median (min, max)
  Tmax: 3 h
[3]; 5 mg, 5.0 mg oral once daily, low-salt diet, day 1, mean ± SD, n=9, read-out: Cmax,D1
  Cmax: 47.3 ± 12.3 ng/mL
[3]; 5 mg, 5.0 mg oral once daily, low-salt diet, day 1, read-out: Tmax,D1, median (min, max)
  Tmax: 3.02 h
[3]; 5 mg, 5.0 mg oral once daily, low-salt diet, day 10, mean ± SD, read-out: Cmax,D10
  Cmax: 113 ± 25.9 ng/mL
[3]; 5 mg, 5.0 mg oral once daily, low-salt diet, day 10, mean ± SD
  Vd/F: 134 ± 42 L
[3]; 5 mg, 5.0 mg oral once daily, low-salt diet, day 10, mean ± SD, read-out: t1/2 (converted)
  half-life: 29.4 ± 6.47 h
[3]; 5 mg, 5.0 mg oral once daily, low-salt diet, day 10, read-out: Tmax,D10, median (min, max)
  Tmax: 3 h
[3]; across doses 0.5-5.0 mg oral once daily, read-out: median Tmax (time to peak plasma concentration after dosing)
  Tmax: ≤ 4 h
[3]; range across doses 0.5-5.0 mg oral once daily for 10 days, read-out: mean t1/2
  half-life: 26 to 31 h
[4]; day 1
  baxdrostat dose recovered unchanged in the urine: Approximately 7%
[4]; steady state (day 10)
  baxdrostat dose recovered unchanged in the urine: ~ 32%
